# Assay results as given in patent US12329756B2, “Regulation of eIF4E activity for migraine therapy” (Board of Regents, The University of Texas System, priority 2020, dated 2025).
# How the values were obtained:
# [1] = tested on: Jurkat cells; details: cited from earlier work
# [2] = tested on: female ICR mice; assay: dural IL-6 facial hypersensitivity and hyperalgesic priming model (von Frey facial withdrawal threshold); assay type: in vivo; details: for hyperalgesic priming: response to second dural stimulus SIF pH 7.0: 25 μg dural co-injection with 0.1 ng IL-6, pH 7.0 given after return to baseline; for acute facial mechanical hypersensitivity after dural IL-6: 25 μg dural co-injection with 0.1 ng IL-6, versus IL-6 alone
# Experimental: Mice received a dural injection of interleukin-6 in the absence or presence of the protein synthesis inhibitor anisomycin or the translation initiation inhibitor 4EGI-1 and were tested for facial hypersensitivity. Upon returning to baseline, mice were given a second, non-noxious dural injection of pH 7.0 to test for priming. Additionally, eIF4ES209A mice lacking phosphorylation of mRNA cap-binding protein eIF4E received dural interleukin-6 or were subjected to repeated restraint stress and then tested for facial hypersensitivity. After returning to baseline, mice were given either dural pH 7.0 or a systemic sub-threshold dose of the nitric oxide donor sodium nitroprusside and tested for priming.
# First female mice were administered either 0.1 ng of IL-6, 25 μg of anisomycin (a general protein synthesis inhibitor), or a co-injection of both onto the dura to induce mechanical facial allodynia that persisted for more than 24 h and resolved by 72 h (FIG. 2). Upon returning to baseline, a second stimulus, SIF (pH 7.0), was administered onto the dura to reveal the presence of hyperalgesic priming from the initial IL-6 stimulus. […] This hypersensitivity persisted for more than 5 h.
# Similar to the experiments used to generate FIG. 2, 0.1 ng of IL-6, 25 μg of 4EGI-1, a compound that mimics the activity of 4E-BP1, or a co-injection of both was administered onto the dura of female mice (FIG. 3). The resulting mechanical allodynia induced by IL-6 persisted for more than 24 h and resolved after 72 h. Upon returning to baseline, mice were exposed to a dural injection of low pH. […] Thus, assembly of the eIF4F complex locally in the dura appears to be critical to the development of long-lasting mechanical hypersensitivity following repeated stress.
# Human recombinant IL-6 protein (R&D Systems) stock solution (100 mg/mL) was prepared in sterile 0.1% BSA and diluted to 1 ng/mL in synthetic interstitial fluid (SIF) consisting of 135 mM NaCl, 5 mM KCl, 10 mM HEPES, 2 mM CaCl2, 10 mM glucose, 1 mM MgCl2 (pH 7.4, 310 mOsm). Anisomycin (Tocris) stock solution (135 mg/mL) and 4EGI-1 (Enzo) stock solution (20 mg/mL) were both prepared in sterile 0.1% BSA and diluted to 5 mg/mL in SIF. Sodium nitroprusside (SNP) (Sigma-Aldrich) was prepared in sterile phosphate buffered saline (PBS) at the time of use and was kept away from light. For dural injections, mice received […] injections of either IL-6, anisomycin, 4EGI-1, SIF, or a combination of IL-6 and anisomycin or IL-6 and 4EGI-1 for acute testing. For testing the ability of mice to prime to the initial stimulus in these dural injection experiments, […] of SIF pH 7.0 were administered onto the dura. […]
# [3] = tested on: A549 cells; details: cited from earlier work
# [4] = local administration; cited from earlier work
# [5] = in vivo; cited from earlier work
# [6] = tested on: mice; details: Moy et al. (2017); cited from earlier work
# [7] = tested on: hyperglycemic mice; details: cited from earlier work
# [8] = biological target: T1, Candida Pkc1 (Candida albicans, UniProt P43057); details: cited from earlier work
# T1 sequence (P43057 1-1097): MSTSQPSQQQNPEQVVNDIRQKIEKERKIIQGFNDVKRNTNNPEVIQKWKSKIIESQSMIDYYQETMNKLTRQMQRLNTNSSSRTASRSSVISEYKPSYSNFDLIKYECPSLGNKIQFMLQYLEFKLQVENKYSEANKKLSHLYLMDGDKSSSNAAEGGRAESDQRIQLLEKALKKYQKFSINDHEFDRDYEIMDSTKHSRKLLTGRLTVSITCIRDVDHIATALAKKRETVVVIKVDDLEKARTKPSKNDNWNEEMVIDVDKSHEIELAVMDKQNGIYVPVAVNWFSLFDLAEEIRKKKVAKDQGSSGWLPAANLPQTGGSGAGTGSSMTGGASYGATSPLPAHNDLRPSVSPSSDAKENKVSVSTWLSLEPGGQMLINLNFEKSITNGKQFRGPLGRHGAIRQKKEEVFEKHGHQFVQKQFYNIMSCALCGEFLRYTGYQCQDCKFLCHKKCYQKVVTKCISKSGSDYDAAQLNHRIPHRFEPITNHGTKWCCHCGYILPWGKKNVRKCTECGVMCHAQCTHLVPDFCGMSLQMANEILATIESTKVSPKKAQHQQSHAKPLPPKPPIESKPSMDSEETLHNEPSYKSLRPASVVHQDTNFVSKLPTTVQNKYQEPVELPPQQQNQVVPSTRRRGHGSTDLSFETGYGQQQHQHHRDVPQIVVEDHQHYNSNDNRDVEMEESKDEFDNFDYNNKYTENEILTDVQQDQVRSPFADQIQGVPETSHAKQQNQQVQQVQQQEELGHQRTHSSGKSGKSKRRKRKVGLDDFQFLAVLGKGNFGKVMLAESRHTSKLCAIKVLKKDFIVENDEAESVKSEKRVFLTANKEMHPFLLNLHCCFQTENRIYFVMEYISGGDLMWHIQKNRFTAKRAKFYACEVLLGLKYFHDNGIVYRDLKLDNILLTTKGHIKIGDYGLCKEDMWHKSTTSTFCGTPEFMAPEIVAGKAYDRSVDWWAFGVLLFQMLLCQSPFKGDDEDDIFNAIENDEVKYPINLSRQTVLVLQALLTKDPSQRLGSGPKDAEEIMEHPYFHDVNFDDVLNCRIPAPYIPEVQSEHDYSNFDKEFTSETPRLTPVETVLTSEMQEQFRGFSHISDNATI
# [9] = tested on: hindpaw; details: local co-injection with IL-6 into the hindpaw, previous study; cited from earlier work
# [10] = tested on: DLBCL cell lines; details: multiple DLBCL cell lines; cited from earlier work
# [11] = tested on: TNFa, IL-6, IL-10 and CXCL10 production in TMD8, OCI-Ly3 and HBL1 DLBCL cell lines; details: cited from earlier work
# [12] = tested on: models which harbor activating MyD88 mutations; details: in vivo, multiple models harboring activating MyD88 mutations; cited from earlier work
# [13] = tested on: TNFa mRNA; details: cited from earlier work
# [14] = tested on: eIF4E phosphorylation at serine 209; details: in vitro, tumor cell lines, dose-dependent; read-out: IC50 for reduction of eIF4E phosphorylation at serine 209; cited from earlier work
smiles,measurement,setting,value
O=C(O)C(Cc1ccccc1[N+](=O)[O-])=NNc1nc(-c2ccc(Cl)c(Cl)c2)cs1 [4EGI-1],activity against Jurkat cells,[1],exhibits activity
same,hyperalgesic priming: response to second dural stimulus SIF pH 7.0,[2],robustly blocked
same,acute facial mechanical hypersensitivity after dural IL-6,[2],partially attenuated
same,activity against A549 cells,[3],exhibits activity
same,mechanical hypersensitivity and injury-induced changes in nociceptor excitability,[4],reduces
CC(=O)C1=C(O)C=C2Oc3c(C(N)=O)c(O)cc(O)c3[C@]2(C)C1=O [Cercosporamide],oral bioavailability,[5],orally bioavailable
same,cold hypersensitivity induced by peripheral nerve injury,[6],reduced
same,plasma glucose,[7],lowering of plasma glucose
same,IC50,[8],25 nM
COc1ccc(C[C@H]2NC[C@H](O)[C@H]2OC(C)=O)cc1 [anisomycin],acute mechanical hypersensitivity after IL-6 into the hindpaw,[9],prevented
same,hyperalgesic priming: response to second dural stimulus SIF pH 7.0,[2],did not respond to the low pH
same,acute facial mechanical hypersensitivity after dural IL-6,[2],only minor differences
same,mechanical hypersensitivity and injury-induced changes in nociceptor excitability,[4],reduces
Cc1cc(Nc2cc(N)ncn2)c(=O)n2c1C(=O)NC21CCCCC1 [eFT508],anti-proliferative activity,[10],anti-proliferative activity
same,"production of pro-inflammatory cytokines including TNFa, IL-6, IL-10 and CXCL10",[11],dose-dependent decreases
same,oral bioavailability,[5],orally bioavailable
same,anti-tumor activity,[12],significant anti-tumor activity
same,decrease in TNFa mRNA half-life,[13],2 fold
same,IC50,[14],2 to 16 nM
